Assay results reported in US9000032B2, “Substituted cyclopentenes as therapeutic agents” (Allergan, Inc., priority 2013, dated 2015).

Experiments:
[1] = molecular target: T1, hEP2/Gqs5 (Homo sapiens, UniProt P43116); assay: FLIPR calcium signal, EP2; type: cell-based; details: HEK-293(EBNA) hEP2/Gqs5, read-out: EP2 Ca2+ EC50
T1 construct: expressed in transfected cells
Method: (§1) HEK-293(EBNA) cells, stably expressing one type or subtype of recombinant human prostaglandin receptors (prostaglandin receptors expressed: hDP/Gqs5; hEP1, hEP2/Gqs5; hEP3A/Gqi5; hEP4/Gqs5; hFP; hIP; hTP), were cultured in 100 mm culture dishes in high-glucose DMEM medium containing 10% fetal bovine serum, 2 mM I-glutamine, 250 μg/ml geneticin (G418) and 200 μg/ml hygromycin B as selection markers, and 100 units/ml penicillin G, 100 μg/ml streptomycin and 0.25 μg/ml amphotericin B.
(§2) Cells were seeded at a density of 5×10^4 cells per well in Biocoat® Poly-D-lysine-coated black-wall, clear-bottom 96-well plates (Becton-Dickinson) and allowed to attach overnight in an incubator at 37° C. Cells were then washed two times with HBSS-HEPES buffer (Hanks Balanced Salt Solution without bicarbonate and phenol red, 20 mM HEPES, pH 7.4) using a Denley Cellwash plate washer (Labsystems). After 45 minutes of dye-loading in the dark, using the calcium-sensitive dye Fluo-4 AM at a final concentration of 2 μM, plates were washed four times with HBSS-HEPES buffer to remove excess dye leaving 100 μl, in each well. Plates were re-equilibrated to 37° C. for a few minutes.
(§3) Cells were excited with an Argon laser at 488 nm, and emission was measured through a 510-570 nm bandwidth emission filter (FLIPR™, Molecular Devices, Sunnyvale, Calif.). Drug solution was added in a 50 μL volume to each well to give the desired final concentration. The peak increase in fluorescence intensity was recorded for each well. On each plate, four wells each served as negative (HBSS-HEPES buffer) and positive controls (standard agonists: BW245C (hDP); PGE2(hEP1, hEP2/Gqs5; hEP3A/Gqi5; hEP4/Gqs5); PGF2α (hFP); carbacyclin (hIP); U-46619 (hTP), depending on receptor). The peak fluorescence change in each drug-containing well was then expressed relative to the controls.
(§4) Compounds were tested in a high-throughput (HTS) or concentration-response (CoRe) format. In the HTS format, forty-four compounds per plate were examined in duplicates at a concentration of 10^−5 M. To generate concentration-response curves, four compounds per plate were tested in duplicates in a concentration range between 10^−5 and 10^−11. The duplicate values were averaged. In either, HTS or CoRe format each compound was tested on at least 3 separate plates using cells from different passages to give an n≧3.

[2] = molecular target: T2, EP4 receptors (Homo sapiens, UniProt P35408); assay: Radioligand binding, [3H]PGE2, EP4; details: [3H]PGE2 competition, HEK-293 cells expressing EP4; read-out: EP4 Ki EC50
T2 construct: expressed in transfected cells; membrane fraction
Method: (§5) HEK-293 cells stably expressing the human or feline FP receptor, or EP1, EP2, or EP4 receptors were washed with TME buffer, scraped from the bottom of the flasks, and homogenized for 30 sec using a Brinkman PT 10/35 polytron. TME buffer was added to achieve a final 40 ml volume in the centrifuge tubes (the composition of TME is 100 mM TRIS base, 20 mM MgCl2, […]; ION HCl is added to achieve a pH of 7.4).
(§6) The cell homogenate was centrifuged at 19000 rpm for 20 min at 4° C. using a Beckman Ti-60 rotor. The resultant pellet was resuspended in TME buffer to give a final 1 mg/ml protein concentration, as determined by Biorad assay. Radioligand binding competition assays vs. [^3H-]17-phenyl PGF2α (5 nM) were performed in a 100 μl volume for 60 min. Binding reactions were started by adding plasma membrane fraction. The reaction was terminated by the addition of 4 ml ice-cold TRIS-HCl buffer and rapid filtration through glass fiber GF/B filters using a Brandel cell harvester. The filters were washed 3 times with ice-cold buffer and oven dried for one hour.
(§7) [^3H-] PGE2 (specific activity 180 Ci mmol) was used as the radio ligand for EP receptors. [^3H] 17-phenyl PGF2α was employed for FP receptor binding studies. Binding studies employing EP1, EP2, EP4 and FP receptors were performed in duplicate in at least three separate experiments. A 200 μl assay volume was used. Incubations were for 60 min at 25° C. and were terminated by the addition of 4 ml of ice-cold 50 mM TRIS-HCl, followed by rapid filtration through Whatman GF/B filters and three additional 4 ml washes in a cell harvester (Brandel). Competition studies were performed using a final concentration of 5 nM [^3H]-PGE2, or 5 nM [^3H] 17-phenyl PGF2α and non-specific binding determined with 10^−5 M of unlabeled PGE2, or 17-phenyl PGF2α according to receptor subtype studied.

[3] = molecular target: T3, hEP4/Gqs5 (Homo sapiens, UniProt P35408); assay: FLIPR calcium signal, EP4; type: cell-based; details: HEK-293(EBNA) hEP4/Gqs5, read-out: EP4 Ca2+ EC50
T3 construct: expressed in transfected cells
Method: as §1, §2, §3
(§8) Compounds were tested in a high-throughput (HTS) or concentration-response (CoRe) format. […]

[4] = molecular target: T4, hDP/Gqs5 (Homo sapiens, UniProt Q13258); assay: FLIPR calcium signal, DP; type: cell-based; details: NA listed after 'NA:', read-out: OTHER RECEPTORS Ca2+ EC50: DP
T4 construct: expressed in transfected cells
T4 sequence (Q13258 1-359): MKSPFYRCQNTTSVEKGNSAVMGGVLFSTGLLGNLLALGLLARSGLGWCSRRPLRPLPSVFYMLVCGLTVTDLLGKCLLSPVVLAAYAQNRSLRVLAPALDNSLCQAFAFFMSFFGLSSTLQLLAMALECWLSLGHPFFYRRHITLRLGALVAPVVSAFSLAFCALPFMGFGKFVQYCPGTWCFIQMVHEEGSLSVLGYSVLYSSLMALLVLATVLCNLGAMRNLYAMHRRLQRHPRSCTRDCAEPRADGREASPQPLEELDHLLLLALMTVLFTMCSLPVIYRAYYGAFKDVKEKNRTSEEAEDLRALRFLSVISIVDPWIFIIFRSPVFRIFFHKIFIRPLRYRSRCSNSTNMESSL
Method: as §1, §2, §3, §8

[5] = molecular target: T5, hEP3A/Gqi5 (Homo sapiens, UniProt P43115); assay: FLIPR calcium signal, EP3; type: cell-based; details: read-out: OTHER RECEPTORS Ca2+ EC50: EP3
T5 construct: expressed in transfected cells
T5 sequence (P43115 1-390): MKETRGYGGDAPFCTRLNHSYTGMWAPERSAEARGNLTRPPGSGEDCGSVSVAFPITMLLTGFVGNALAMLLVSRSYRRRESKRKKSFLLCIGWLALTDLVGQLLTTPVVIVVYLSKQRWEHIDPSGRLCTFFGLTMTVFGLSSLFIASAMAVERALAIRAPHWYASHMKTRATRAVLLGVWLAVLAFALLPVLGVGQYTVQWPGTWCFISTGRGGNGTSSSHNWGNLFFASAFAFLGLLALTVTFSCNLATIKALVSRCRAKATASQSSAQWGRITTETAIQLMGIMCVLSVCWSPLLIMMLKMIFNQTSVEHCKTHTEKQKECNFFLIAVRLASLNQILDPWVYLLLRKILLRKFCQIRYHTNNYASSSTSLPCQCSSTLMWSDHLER
Method: as §1, §2, §3, §4

[6] = molecular target: T6, EP2 (Homo sapiens, UniProt P43116); assay: Competition radioligand binding, [3H]PGE2, EP2; set-up: expressed in transfected cells; membranes or whole cells; details: [3H]PGE2 competition, HEK 293 cells expressing human EP2
Method: Competition binding experiments were performed in a medium containing Hank's balanced salt solution, Hepes 20 mM, pH 7.3, membranes (˜[…] protein) or 2×10^5 cells from HEK 293 cells stably expressing human EP2 receptors, [^3H]PGE2 (10 nM) and various concentrations of test compounds in a total volume of 300 μl. Reaction mixtures were incubated at 23° C. for 60 min, and were filtered over Whatman GF IB filters under vacuum. Filters were washed three times with 5 ml ice-cold buffer containing 50 mM Tris/HCl (PH 7.3). Non-specific binding was estimated in the presence of excess unlabeled PGE2 (10 μM). Binding data fitted to the binding model for a single class of binding sites, using nonlinear regression analysis. IC50 values thus obtained were converted to Ki using the equation of Ki=(IC50/(1+[L]/KD) where [L] represents PGE2 concentration (10 nM) and KD the dissociation constant for [^3H]PGE2 at human EP2 receptors (40 nM).
as §5, §6, §7

[7] = molecular target: T6, EP2; assay: cAMP assay, HEK-EBNA cells expressing EP2; type: cell-based; set-up: expressed in transfected cells; host or cells: HEK-EBNA cells
Method: A 384-well drug plate was prepared to contain 6 test compounds, PGE2 and cAMP in 16 serial dilutions in triplicate, using a Biomek station. HEK-EBNA cells expressing a target PG receptor subtype (EP2 or EP4) were suspended in a stimulation buffer (HBSS, 0.1% BSA, 0.5 mM IBMX and 5 mM HEPES, pH 7.4) in a density of 10^4 cells/5 μL. The reaction was initiated by mixing 5 μL drug dilutions with 5 μL of HEK-EBNA cells in a well, carried out for 30 min at room temperature, and followed by the addition of 5 μL anti-cAMP acceptor beads in the control buffer with Tween-20 (25 mM NaCl, 0.03% Tween-20, 5 mM HEPES, pH 7.4). After 30 min in the dark at room temperature, the mixtures were incubated with 15 μL biotinylated-cAMP/strepavidin donor beads in Lysis/Detection buffer (0.1% BSA, 0.3% Tween-20 and 5 mM HEPES, pH 7.4) for 45 min at the room temperature. Fluorescence changes were read using a Fusion-alpha HT microplate reader.

T6 sequence (P43116 whole entry): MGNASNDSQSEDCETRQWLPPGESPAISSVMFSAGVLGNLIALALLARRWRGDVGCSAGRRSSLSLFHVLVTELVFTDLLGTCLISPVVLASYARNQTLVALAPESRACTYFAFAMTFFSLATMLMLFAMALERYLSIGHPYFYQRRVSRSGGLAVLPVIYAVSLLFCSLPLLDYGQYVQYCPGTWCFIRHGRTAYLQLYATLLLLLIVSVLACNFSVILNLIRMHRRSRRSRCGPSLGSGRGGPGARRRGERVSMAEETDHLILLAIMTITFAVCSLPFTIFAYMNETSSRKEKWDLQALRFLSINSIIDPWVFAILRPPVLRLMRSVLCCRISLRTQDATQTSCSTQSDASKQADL
T1 sequence (P43116 whole entry): as above
T2 sequence (P35408 whole entry): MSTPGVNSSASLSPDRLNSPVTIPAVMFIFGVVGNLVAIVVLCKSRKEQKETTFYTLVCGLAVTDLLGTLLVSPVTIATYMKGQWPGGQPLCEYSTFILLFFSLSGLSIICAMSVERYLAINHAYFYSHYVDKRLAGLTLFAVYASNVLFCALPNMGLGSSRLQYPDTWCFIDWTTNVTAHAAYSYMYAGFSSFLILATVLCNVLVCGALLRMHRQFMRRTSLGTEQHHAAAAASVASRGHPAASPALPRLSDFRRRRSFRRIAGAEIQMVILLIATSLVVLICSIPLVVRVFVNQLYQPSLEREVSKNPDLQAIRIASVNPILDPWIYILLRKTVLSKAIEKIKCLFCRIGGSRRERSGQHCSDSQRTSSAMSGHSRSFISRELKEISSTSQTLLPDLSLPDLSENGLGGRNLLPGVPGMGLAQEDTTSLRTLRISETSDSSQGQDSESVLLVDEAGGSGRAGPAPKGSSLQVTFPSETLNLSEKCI
T3 sequence (P35408 whole entry): as above

Compound | EC50 [1] | Ki [2] | EC50 [3] | EC50 [4] | EC50 [5] | Ki [6] | EC50 [7]
C#CC1=C(c2ccc(C(O)CCCCC)cc2)[C@@H](CCCc2ccc(C(=O)O)s2)CC1 (single isomer, unassigned) [compound 1] | 48 nM | 2820 nM | > 10000 nM | 7730 nM | 171 nM | 2 nM | 0.2 nM
CCCCCC(O)c1ccc(C2=C(C#CCO)CC[C@@H]2CCCc2ccc(C(=O)O)s2)cc1 (stereo partly shown) [compound 3] | 0.5 nM | 783 nM | > 10000 nM | 220 nM | 7400 nM | 17 nM | 1.5 nM
CCCCCC(O)c1ccc(C2=C(C#Cc3ccccc3)CC[C@@H]2CCCc2ccc(C(=O)O)s2)cc1 (stereo partly shown) [compound 4] | 513 nM | 8190 nM | > 10000 nM | – | 7080 nM | 2530 nM | 140 nM
C#CC1=C(c2ccc(C(O)CCCCC)cc2)[C@@H](CCCc2ccc(C(=O)O)s2)CC1 (single isomer, unassigned) [compound 2] | 22 nM | 712 nM | – | > 10000 nM | 1540 nM | 7 nM | –
